Source: patent publication US7056948B2, “Use of odor reducing and cross-adapting agents to reduce animal waste malodors” (Monell Chemical Senses Center, priority 2000, dated 2006)

Assays:
[1] = Initial olfactory evaluation by judges of swine slurry treated with a single odor-reducing or cross-adapting agent; settings: initial olfactory evaluations by several judges; 1-10% by weight
Text: We attempted amelioration of odor from swine slurry. Swine slurry is a highly malodorous aqueous mixture of pig feces, urine, body secretions and spent feed. Each concentration was mixed with 1 gm of untreated swine slurry. Untreated swine slurry served as a control.

[2] = cited from earlier work

Substance	suppression of the stronger malodor notes in swine slurry [1]	reduction in malodor in patients with urinary and fecal incontinence ([2]; 100-200 mg doses, after the first week of treatment)	dosages safely used ([2]; Chernomorsky et al.)	control of malodors in colostomy patients ([2]; oral, 100-200 mg daily)	side effects in colostomy patients ([2]; oral, 100-200 mg daily)
chlorophyllin copper complex [CCC]	appeared to suppress the stronger malodor notes	marked reduction in malodor	up to 800 mg/day	sufficient to control malodors	without undesirable side effects
bismuth subgallate [BiG]	appeared to suppress the stronger malodor notes				
